Results on eleven compounds are retold here after EP0281242B1, “Beta-alkylmelatonins” (ELI LILLY AND COMPANY, priority 1987, dated 1988).

One assay relates to Adult female rats. Nature of the assay: Ovulation inhibition in adult female rats (ova in the oviduct on the day of estrus). It counts as in vivo. As to conditions: Rattus norvegicus, po; administered orally at noon on the day of proestrus; dose giving a 50% decrease in the number of ovulating non-control rats relative to control rats; read-out: Minimum effective inhibitory dose in mg per kilogram of rat weight. The protocol:
The degree of ovulation inhibitory activity was determined according to the following protocol.
Adult female rats with regular estrus cycles of four days each are employed. The estrus cycle consists of 2 days of diestrus followed by a day of proestrus and then a day of estrus. […] On the afternoon of proestrus, luteinizing hormone (LH) is released into the blood by the pituitary gland. The LH travels to the ovary where it induces ovulation, resulting in the presence of eggs in the oviduct on the day of estrus.
The test compound is administered orally to the non-control rats at noon on the day of proestrus. Both control and non-control rats are sacrificed on the following day (estrus). The oviduct is removed from each rat and examined microscopically for the presence of ova.
Melatonin is included in Table I for comparative purposes.

For the next assay, the system named is ovulation. The settings on record: compared to melatonin; cited from earlier work.
A further assay relates to rats and mice. As to conditions: cited from earlier work.

For `COc1cc2c(C(C)CNC(C)=O)c[nH]c2c(Cl)c1Cl` (racemic) [β-Methyl-6,7-dichloro-melatonin, β-methyl-6,7-dichloromelatonin], the minimal effective dose with Adult female rats was 15 mg/kg.

Take `CCC(CNC(C)=O)c1c[nH]c2ccc(OC)cc12` (racemic) [β-ethyl melatonin, β-Ethylmelatonin]: the minimal effective dose in the assay with Adult female rats amounted to 1 mg/kg.

Turning to `COc1ccc2[nH]cc(C(C)CNC(C)=O)c2c1` (racemic) [β-methyl melatonin, β-Methylmelatonin], the minimal effective dose with Adult female rats came out at 1 mg/kg.

As to `COc1cc2c(C(C)CNC(C)=O)c[nH]c2cc1Cl` (racemic) [β-methyl-6-chloro-melatonin, β-Methyl-6-chloromelatonin], the minimal effective dose in the assay with Adult female rats was determined as 2 mg/kg.

In the case of `COc1cc2c(CCNC(C)=O)c[nH]c2cc1Cl` [6-chloromelatonin], the ovulation blocking activity result in the assay with ovulation is “increased ovulation blocking activity”.

For `COc1cc2c(CCNC(C)=O)c[nH]c2cc1F` [6-fluoromelatonin], in the assay with ovulation, the ovulation blocking activity result was “increased ovulation blocking activity”.

For `COc1ccc2[nH]cc(CCNC(C)=O)c2c1` [Melatonin, N-[2-(5-methoxy-3-indolyl)ethyl]acetamide], the minimal effective dose in the assay on Adult female rats was determined as 32 mg/kg. The “inhibition of the estrous phase of the estrous cycle and of ovulation” value in the assay on rats and mice was “inhibited both the estrous phase of the estrous cycle and ovulation”.

Consider `COc1ccc2[nH]cc([C@@H](C)CNC(C)=O)c2c1` [R-(+)-β-methyl melatonin, R-(+)-β-Methylmelatonin], for which the minimal effective dose in the assay on Adult female rats turned out to be 1 mg/kg.

`COc1cc2c([C@@H](C)CNC(C)=O)c[nH]c2cc1Cl` [R-(+)-β-methyl-6-chloromelatonin]: the minimal effective dose in the assay on Adult female rats turned out to be 1 mg/kg.

Take `COc1cc2c([C@H](C)CNC(C)=O)c[nH]c2cc1Cl` [S-(-)-β-methyl-6-chloromelatonin]: the minimal effective dose in the assay on Adult female rats was > 5 mg/kg.

In the case of `COc1cc2c(CC(C)NC(C)=O)c[nH]c2cc1Cl` (stereo not drawn) [α-Methyl-6-chloromelatonin], the ovulation blocking activity result in the assay with ovulation is listed as “no increased ovulation-blocking activity”.
